Test results published in US9867826B2, “Heterocycles as modulators of kinase activity” (Merck Patent GmbH, priority 2013, dated 2018).
pIC50: −log10 of the molar value.

Tests used:
P70S6K (T412E mutant) = P70S6K (T412E mutant) (Homo sapiens (Human), UniProt P23443, T412E); assay: P70S6K enzyme assay; assay type: biochemical; conditions: 24 μM ATP
Experimental: P70S6K inhibitor compounds were diluted and plated in 96 well plates. A reaction mixture including the following components was then added to the compound plate to initiate the enzyme reaction; P70S6K (3 nM, T412E mutant, Millipore) was mixed with 24 μM ATP in an assay buffer containing 100 mM Hepes (pH 7.5), 5 mM MgCl2, 1 mM DTT, 0.015% Brij and 1 μM of the substrate peptide FITC-AHA-AKRRRLSSLRA-OH (derived from the S6 ribosomal protein sequence, FITC=fluorescein isothiocyanate, AHA=6-aminohexanoic acid). The reaction was incubated for 90 min at 25° C., before the addition of 10 mM EDTA to stop the reaction. The proportion of substrate and product (phosphorylated) peptide was analysed on a Caliper Life Sciences Lab Chip 3000, using a pressure of −1.4 psi, and upstream and downstream voltages of −3000 and −700 respectively. Product peaks were resolved before substrate peaks on the resulting chromatograms.

His-AKT (Full Length) = His-AKT (Full Length) (Homo sapiens (Human), UniProt P31749); assay: AKT enzyme assay; assay type: biochemical; conditions: 160 uM ATP
His-AKT (Full Length), sequence (P31749 whole entry): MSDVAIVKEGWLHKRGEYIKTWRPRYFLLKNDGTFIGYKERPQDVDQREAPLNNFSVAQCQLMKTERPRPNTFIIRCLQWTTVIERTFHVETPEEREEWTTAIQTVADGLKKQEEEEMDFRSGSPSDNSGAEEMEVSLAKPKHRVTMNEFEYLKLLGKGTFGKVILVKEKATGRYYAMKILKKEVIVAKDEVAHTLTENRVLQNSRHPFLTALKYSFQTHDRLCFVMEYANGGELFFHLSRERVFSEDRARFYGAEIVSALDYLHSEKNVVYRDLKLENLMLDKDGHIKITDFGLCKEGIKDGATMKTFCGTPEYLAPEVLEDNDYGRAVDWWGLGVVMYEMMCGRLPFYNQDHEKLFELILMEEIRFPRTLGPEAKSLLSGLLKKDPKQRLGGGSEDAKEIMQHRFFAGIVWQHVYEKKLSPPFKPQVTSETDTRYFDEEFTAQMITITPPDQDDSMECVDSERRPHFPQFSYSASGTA
Experimental: A TTP Mosquito liquid handling instrument was used to place 125 nl of the appropriate concentration of inhibitor in 100% DMSO (for a dose response curve calculation) into each well of a 384-well plate. To this reaction components were added to a final volume of 12.5 μl: • 0.1 ng/μl His-AKT (Full Length), (Invitrogen, Part # P2999, Lot #641228C). • 160 uM ATP (Fluka, 02055) • 1 mM DTT (Sigma, D0632) • 1 mM MgCl2 (Sigma, M1028) • 1 μM substrate peptide (sequence FITC-AHA-GRPRTSSFAEG-NH2), synthesized by Tufts Peptide Synthesis service. • 100 mM HEPES pH 7.5 (Calbiochem, 391338) • 0.015% Brij-35 (Sigma, B4184)
The reaction was incubated for 90 min at 25 C., and then stopped by the addition of 70 μl of Stop buffer (100 mM HEPES pH 7.5, 0.015% Brij-35, 10 mM EDTA (Sigma, E7889)).
The plate was read on a Caliper LC 3000 in an Off-Chip mobility shift assay format, using the following parameters for a 12-sipper chip: screening pressure −2.3 psi, upstream voltage −500, and downstream voltage −3000. These conditions caused unphosphorylated substrate and phosphorylated product peptide to resolve as separate peaks allowing direct measurement of percentage of conversion of substrate to product.
The percent conversion was plotted against concentration of inhibitor to produce a sigmoidal dose response curve, from which an IC50 was calculated.

P70S6K (T412E mutant), sequence (P23443 whole entry T412E): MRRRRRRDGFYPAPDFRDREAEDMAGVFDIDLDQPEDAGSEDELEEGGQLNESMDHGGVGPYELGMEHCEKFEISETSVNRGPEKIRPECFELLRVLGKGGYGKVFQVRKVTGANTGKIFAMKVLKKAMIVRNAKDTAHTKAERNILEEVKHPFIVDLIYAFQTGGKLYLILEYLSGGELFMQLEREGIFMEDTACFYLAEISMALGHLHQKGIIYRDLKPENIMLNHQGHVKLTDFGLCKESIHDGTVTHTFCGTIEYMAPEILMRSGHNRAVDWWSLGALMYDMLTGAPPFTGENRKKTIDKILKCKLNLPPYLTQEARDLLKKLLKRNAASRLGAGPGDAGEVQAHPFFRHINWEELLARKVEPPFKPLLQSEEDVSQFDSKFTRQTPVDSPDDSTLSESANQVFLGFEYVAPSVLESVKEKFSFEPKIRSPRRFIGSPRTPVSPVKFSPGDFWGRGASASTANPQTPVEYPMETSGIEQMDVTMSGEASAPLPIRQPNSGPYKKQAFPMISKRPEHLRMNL

SMILES | pIC50 (P70S6K (T412E mutant)) | pIC50 (His-AKT (Full Length))
CCOc1c(N)ncnc1N1CC[C@@H](c2nc(-c3ccc(F)c(C(F)(F)F)c3)cn2CCN2CCC2)[C@@H](F)C1 (racemic) [Compound 16, 6-{3,4-cis-4-[1-(2-Azetidin-1-yl-ethyl)-4-(4-fluoro-3-trifluoromethyl-phenyl)-1H-imidazol-2-yl]-3-fluoro-piperidin-1-yl}-5-ethoxy-pyrimidin-4-ylamine] | 8.00 to 9.00 | 8.00 to 9.00
Cc1cc(-c2cn(CCN3CCC3)c([C@@H]3CCN(c4ncnc(N)c4C#N)C[C@@H]3F)n2)ccc1F (racemic) [Compound 18, 4-Amino-6-{cis-4-[1-(2-azetidin-1-yl-ethyl)-4-(4-fluoro-3-methyl-phenyl)-1H-imidazol-2-yl]-3-fluoro-piperidin-1-yl}-pyrimidine-5-carbonitrile] | 8.00 to 9.00 | 8.00 to 9.00
Cc1cc(-c2cn(CCN3CCC3)c([C@@H]3CCN(c4ncnc(N)c4C(C)C)C[C@@H]3F)n2)ccc1F (racemic) [Compound 24, 6-{cis-4-[1-(2-Azetidin-1-yl-ethyl)-4-(4-fluoro-3-methyl-phenyl)-1H-imidazol-2-yl]-3-fluoro-piperidin-1-yl}-5-isopropyl-pyrimidin-4-ylamine] | 8.00 to 9.00 | 8.00 to 9.00
CC(C)c1c(N)ncnc1N1CC[C@@H](c2nc(-c3ccc(F)c(C(F)(F)F)c3)c[nH]2)[C@@H](F)C1 (racemic) [Compound 26, 6-{cis-3-Fluoro-4-[4-(4-fluoro-3-trifluoromethyl-phenyl)-1H-imidazol-2-yl]-piperidin-1-yl}-5-isopropyl-pyrimidin-4-ylamine] | 8.00 to 9.00 | < 8.00
Cc1cc(-c2cn(CCNC(C)C)c([C@@H]3CCN(c4ncnc(N)c4C(C)C)C[C@@H]3F)n2)ccc1F (racemic) [Compound 37, 6-{cis-3-Fluoro-4-[4-(4-fluoro-3-methyl-phenyl)-1-(2-isopropylamino-ethyl)-1H-imidazol-2-yl]-piperidin-1-yl}-5-isopropyl-pyrimidin-4-ylamine] | 8.00 to 9.00 | 8.00 to 9.00
CNCCn1cc(-c2ccc(F)c(C)c2)nc1[C@@H]1CCN(c2ncnc(N)c2C(C)C)C[C@@H]1F (racemic) [Compound 38, 6-{cis-3-Fluoro-4-[4-(4-fluoro-3-methyl-phenyl)-1-(2-methylamino-ethyl)-1H-imidazol-2-yl]-piperidin-1-yl}-5-isopropyl-pyrimidin-4-ylamine] | 8.00 to 9.00 | 8.00 to 9.00
Cc1cc(-c2cn(CCN3CCC3)c([C@@H]3CCN(c4ncnc(N)c4OC(C)C)C[C@@H]3F)n2)ccc1F (racemic) [Compound 39, 6-{cis-4-[1-(2-Azetidin-1-yl-ethyl)-4-(4-fluoro-3-methyl-phenyl)-1H-imidazol-2-yl]-3-fluoro-piperidin-1-yl}-5-isopropoxy-pyrimidin-4-ylamine] | 8.00 to 9.00 | 8.00 to 9.00
Cc1cc(-c2cn(CC3CNC3)c([C@@H]3CCN(c4ncnc(N)c4C(C)C)C[C@@H]3F)n2)ccc1F (racemic) [Compound 41, 6-{cis-4-[1-Azetidin-3-ylmethyl-4-(4-fluoro-3-methyl-phenyl)-1H-imidazol-2-yl]-3-fluoro-piperidin-1-yl}-5-isopropyl-pyrimidin-4-ylamine] | 8.00 to 9.00 | 8.00 to 9.00
N#Cc1c[nH]c2ncnc(N3CC[C@@H](c4nc(-c5ccc(F)c(C(F)(F)F)c5)cn4CCN4CCC4)[C@@H](F)C3)c12 (racemic) [Compound 42] | 8.00 to 9.00 | 8.00 to 9.00
N#Cc1c[nH]c2ncnc(N3CC[C@@H](c4nc(-c5ccnc(C(F)(F)F)c5)cn4CCN4CCC4)[C@@H](F)C3)c12 (racemic) [Compound 43] | 8.00 to 9.00 | 8.00 to 9.00
CCOc1c(N)ncnc1N1CC[C@@H](c2nc(-c3ccc(F)c(C(F)(F)F)c3)cn2CCN2CCC2)[C@@H](F)C1 (single isomer, unassigned) [Compound 22] | 8.00 to 9.00 | 8.00 to 9.00

Now from value to molecule:

pIC50 (P70S6K (T412E mutant)) | pIC50 (His-AKT (Full Length)) | SMILES
8.00 to 9.00 | 8.00 to 9.00 | CCc1c(N)ncnc1N1CC[C@@H](c2nc(-c3ccc(F)c(C(F)(F)F)c3)cn2CCN2CCC2)[C@@H](F)C1 (racemic) [Compound 13, 6-{3,4-cis-4-[1-(2-Azetidin-1-yl-ethyl)-4-(4-fluoro-3-trifluoromethyl-phenyl)-1H-imidazol-2-yl]-3-fluoro-piperidin-1-yl}-5-ethyl-pyrimidin-4-ylamine]
8.00 to 9.00 | 8.00 to 9.00 | CN(C)CCn1cc(-c2ccc(F)c(C(F)(F)F)c2)nc1[C@@H]1CCN(c2ncnc(N)c2C#N)C[C@@H]1F (racemic) [Compound 14, 4-Amino-6-{3,4-cis-4-[1-(2-dimethylamino-ethyl)-4-(4-fluoro-3-trifluoromethyl-phenyl)-1H-imidazol-2-yl]-3-fluoro-piperidin-1-yl}-pyrimidine-5-carbonitrile]
8.00 to 9.00 | < 8.00 | CN(C)CCn1cc(-c2ccc(F)c(C(F)(F)F)c2)nc1[C@@H]1CCN(c2ncnc(N)c2C(N)=O)C[C@@H]1F (racemic) [Compound 15]
8.00 to 9.00 | < 8.00 | CC(C)c1c(N)ncnc1N1CC[C@@H](c2nc(-c3ccc(F)c(C(F)(F)F)c3)cn2CCN(C)C)[C@@H](F)C1 (racemic) [Compound 17, 6-{cis-4-[1-(2-Dimethylamino-ethyl)-4-(4-fluoro-3-trifluoromethyl-phenyl)-1H-imidazol-2-yl]-3-fluoro-piperidin-1-yl}-5-isopropyl-pyrimidin-4-ylamine]
8.00 to 9.00 | 8.00 to 9.00 | CN(C)CCn1cc(-c2ccc(F)c(C(F)(F)F)c2)nc1[C@@H]1CCN(c2ncnc(N)c2Cl)C[C@@H]1F (racemic) [Compound 25]
8.00 to 9.00 | 8.00 to 9.00 | CC(C)c1c(N)ncnc1N1CC[C@@H](c2nc(-c3ccc(F)c(C(F)(F)F)c3)cn2CCN)[C@@H](F)C1 (racemic) [Compound 33, 6-{cis-4-[1-(2-Amino-ethyl)-4-(4-fluoro-3-trifluoromethyl-phenyl)-1H-imidazol-2-yl]-3-fluoro-piperidin-1-yl}-5-isopropyl-pyrimidin-4-ylamine]
8.00 to 9.00 | 8.00 to 9.00 | NCCn1cc(-c2ccc(F)c(C(F)(F)F)c2)nc1[C@@H]1CCN(c2ncnc(N)c2Cl)C[C@@H]1F (racemic) [Compound 36]
8.00 to 9.00 | 8.00 to 9.00 | Cc1cc(-c2cn(CCN3CCC3)c([C@@H]3CCN(c4ncnc(N)c4C(N)=O)C[C@@H]3F)n2)ccc1F (relative stereo) [Compound 19, 4-Amino-6-{cis-4-[1-(2-azetidin-1-yl-ethyl)-4-(4-fluoro-3-methyl-phenyl)-1H-imidazol-2-yl]-3-fluoro-piperidin-1-yl}-pyrimidine-5-carboxylic acid amide]
8.00 to 9.00 | 8.00 to 9.00 | NC(=O)c1c(N)ncnc1N1CC[C@@H](c2nc(-c3ccc(F)c(C(F)(F)F)c3)cn2CCN2CCC2)[C@@H](F)C1 (single isomer, unassigned) [Compound 3]
8.00 to 9.00 | < 8.00 | NC(=O)c1c(N)ncnc1N1CC[C@H](c2nc(-c3ccc(F)c(C(F)(F)F)c3)cn2CCN2CCC2)[C@H](F)C1 (single isomer, unassigned) [Compound 4]
8.00 to 9.00 | 8.00 to 9.00 | CN(C)CCn1cc(-c2ccc(F)c(C(F)(F)F)c2)nc1[C@H]1CCN(c2ncnc(N)c2C(N)=O)C[C@H]1F (single isomer, unassigned) [Compound 20]
8.00 to 9.00 | < 8.00 | CN(C)CCn1cc(-c2ccc(F)c(C(F)(F)F)c2)nc1[C@@H]1CCN(c2ncnc(N)c2C(N)=O)C[C@@H]1F (single isomer, unassigned) [Compound 21]
8.00 to 9.00 | 8.00 to 9.00 | CCOc1c(N)ncnc1N1CC[C@H](c2nc(-c3ccc(F)c(C(F)(F)F)c3)cn2CCN2CCC2)[C@H](F)C1 (single isomer, unassigned) [Compound 23]
8.00 to 9.00 | 8.00 to 9.00 | Cc1cc(-c2cn(CCN3CCC3)c([C@@H]3CCN(c4ncnc(N)c4C(N)=O)C[C@@H]3F)n2)ccc1F (single isomer, unassigned) [Compound 27]
< 8.00 | < 8.00 | Cc1cc(-c2cn(CCN3CCC3)c([C@H]3CCN(c4ncnc(N)c4C(N)=O)C[C@H]3F)n2)ccc1F (single isomer, unassigned) [Compound 28]
8.00 to 9.00 | 8.00 to 9.00 | CN(C)CCn1cc(-c2ccc(F)c(C(F)(F)F)c2)nc1[C@@H]1CCN(c2ncnc(N)c2Cl)C[C@@H]1F (single isomer, unassigned) [Compound 29]
